# According to patent US8350015B2, “Cyanine dye” (Kabushiki Kaisha Hayashibara Seibutsu Kagaku Kenkyujo, priority 2004, dated 2013):
# Experiment: Optical resistance of cyanine dye thin membrane exposed to xenon lamp
# Format: physicochemical
# Settings: xenon lamp 180 W/m^2, exposure 5.5 hours
# Procedure: The resulting solution was poured dropwise on one side of a polished glass plate (5 cm×5 cm) and homogenously spread over the surface of the plate by turning the plate at 1,000 rpm for one minute. Successively, thin membrane of the cyanine dye in this invention was formed on the glass plate by drying in the ventilation of warm and cooled air in this order. Immediately after determining optical transmittance (T0) of the cyanine dye in the form of thin membrane at absorption maximum (about 450 nm) wavelength, the membrane was exposed to xenon lamp (light-irradiation energy of 180 W/m^2 on the plate surface) in the ventilation of cooled air while placing […] xenon lamp with a prescribed distance away from the glass plate, after which the membrane was immediately determined for optical transmittance (T) at absorption maximum wavelength. Thereafter, residual dye rate (%) was calculated by substituting the obtained optical transmittances (T and T0) to Formula 1. In parallel, another thin membrane formed by cyanine dye represented by Chemical Formula 14 (Control 1), a additional thin membrane formed by cyanine dye represented by Chemical Formula 16 (Control 2), a further thin membrane formed by cyanine dye represented by Chemical Formula 14 and an equimolar azometallic complex represented by Chemical Formula 15 as an optical resistance-improving agent (Control 3), and one more additional thin membrane formed by cyanine dye represented by Chemical Formula 16 and an equimolar azometallic complex represented by Chemical Formula 15 as an optical resistance-improving agent (Control 4) were determined for optical resistance similarly as above.
# [1] = thin membrane on glass plate, no optical resistance-improving agent, transmittance at absorption maximum (about 450 nm)
# [2] = thin membrane with equimolar azometallic complex Chemical Formula 15 as optical resistance-improving agent
Residual dye rate (%) [1] [%],Residual dye rate (%) [2] [%],SMILES
29.3,91.7,CN1C(=CC2=[N+](C)c3ccccc3C2(C)C)C(C)(C)c2ccccc21 [Chemical Formula 14]
30.1,92.2,CN1C(=CC2=[N+](C)c3ccc4ccccc4c3C2(C)C)C(C)(C)c2c1ccc1ccccc21 [Chemical Formula 16]
